Measured values reported in PubChem BioAssay (NCI).
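Results reflect a 48-hour exposure of cells in 96-well plates to compound at five concentrations. At the GI50, growth is halved. TGI is the concentration that stops growth completely.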

Key:
Experiment in all cases: NCI anticancer screen, dose series, 48 h
SN12C renal = test system: SN12C renal
K-562 leukemia = test system: K-562 leukemia
HCT-116 colon = test system: HCT-116 colon
OVCAR-5 ovarian = test system: OVCAR-5 ovarian
SNB-19 CNS = test system: SNB-19 CNS
CAKI-1 renal = test system: CAKI-1 renal
CCRF-CEM leukemia = test system: CCRF-CEM leukemia
MALME-3M melanoma = test system: MALME-3M melanoma
A549 NSCLC = test system: A549 NSCLC
SK-MEL-5 melanoma = test system: SK-MEL-5 melanoma

Row | Compound | TGI (SN12C renal) | TGI (K-562 leukemia) | TGI (HCT-116 colon) | TGI (OVCAR-5 ovarian) | TGI (SNB-19 CNS) | TGI (CAKI-1 renal) | TGI (CCRF-CEM leukemia) | TGI (MALME-3M melanoma) | TGI (A549 NSCLC) | TGI (SK-MEL-5 melanoma) | GI50 (SN12C renal) | GI50 (K-562 leukemia) | GI50 (HCT-116 colon) | GI50 (OVCAR-5 ovarian) | GI50 (SNB-19 CNS) | GI50 (CAKI-1 renal) | GI50 (CCRF-CEM leukemia) | GI50 (MALME-3M melanoma) | GI50 (A549 NSCLC) | GI50 (SK-MEL-5 melanoma)
1 | O=c1cc(O)c2ccccc2o1 | > 100 µM | > 100 µM | > 100 µM | > 100 µM | > 100 µM | > 100 µM | > 100 µM | > 100 µM | > 100 µM | > 100 µM |  |  |  |  |  |  |  |  |  | 
2 | CCOC(=O)NC | > 100 µM | > 100 µM | > 100 µM | > 100 µM | > 100 µM | > 100 µM | > 100 µM | > 100 µM | > 100 µM | > 100 µM |  |  |  |  |  |  |  |  |  | 
3 | CC1(O)CC23CC1CCC2(C)C12CCCC(C)(C(=O)O1)C2CC3O (centres undefined) | > 100 µM | > 100 µM | > 100 µM | > 100 µM | > 100 µM | > 100 µM | > 100 µM | > 100 µM | > 100 µM | > 100 µM |  |  |  |  |  |  |  |  |  | 
4 | COc1cc(O)c2c(c1)C(=O)c1cc(C)cc(O)c1C2=O | > 100 µM | > 100 µM | > 100 µM | > 100 µM | > 100 µM | > 100 µM | > 100 µM | > 100 µM | > 100 µM | > 100 µM |  |  |  |  |  |  |  |  |  | 
5 | O=C1c2ccccc2C(=O)c2c1ccc(C(=O)O)c2-c1ccc2ccccc2c1 | 88.8 µM | 85.7 µM | 47.7 µM | 59.3 µM | > 100 µM | > 100 µM | 52.4 µM | 70.7 µM | > 100 µM | 39.4 µM |  |  |  |  |  |  |  |  |  | 
6 | Cc1cc(=O)oc2c1cc(OCC(=O)OCCN1CCCCC1)c1occ(C)c12 | > 100 µM | > 100 µM | > 100 µM | > 100 µM | > 100 µM | > 100 µM | > 100 µM | > 100 µM | > 100 µM | > 100 µM |  |  |  |  |  |  |  |  |  | 
7 | Nc1nnc(N)n1NC(=O)C(=O)Nc1ccc([N+](=O)[O-])cc1 | > 100 µM | > 100 µM | > 100 µM | > 100 µM | > 100 µM | > 100 µM | > 100 µM | > 100 µM | > 100 µM | > 100 µM |  |  |  |  |  |  |  |  |  | 
8 | COc1cc(C)c2c(=O)c3c(oc2c1)C(=O)c1c(O)c(OC)cc(O)c1C3=O | 5.3 µM | 4.39 µM | 3.42 µM | 5.36 µM | 7.89 µM | 1.85 µM | 5.12 µM | 3.83 µM | 7.84 µM | 2.33 µM |  |  |  |  |  |  |  |  |  | 
9 | Fc1ccc(-c2nnc3sc(COc4ccccc4Cl)nn23)cc1Cl | > 100 µM | 67.6 µM | > 100 µM | > 100 µM | > 100 µM | > 100 µM | 52.6 µM | > 100 µM | > 100 µM | 69.1 µM | 31.9 µM | 24.6 µM | 29.1 µM | 81 µM | 39.9 µM | 76.6 µM | 20.8 µM | 70.9 µM | 41.1 µM | 23.4 µM
10 | c1ccc2sc(SCN(C3CCCCC3)C3CCCCC3)nc2c1 |  | > 100 µM |  | > 100 µM | > 100 µM | > 100 µM |  | > 100 µM | > 100 µM | > 100 µM |  |  |  |  |  |  |  |  |  | 
11 | O=C(O)C1=NNC(C(=O)O)=NN1 | > 100 µM | > 100 µM | > 100 µM | > 100 µM | > 100 µM | > 100 µM | > 100 µM | > 100 µM | > 100 µM | > 100 µM |  |  |  |  |  |  |  |  |  | 
12 | NC(=O)Nc1cc(O)ccc1N=Nc1ccc(S(=O)(=O)Nc2ccccn2)cc1 | > 100 µM | > 100 µM | > 100 µM | > 100 µM | > 100 µM | > 100 µM | > 100 µM | > 100 µM | > 100 µM | > 100 µM |  |  |  |  |  |  |  |  |  | 
13 | COc1c(Cl)cc(S(=O)O)cc1Cl | > 100 µM | > 100 µM | > 100 µM | > 100 µM | > 100 µM |  | > 100 µM | > 100 µM |  |  |  |  |  |  |  |  |  |  |  | 
